Key:
[1] = tested on: Streptococcus agalactiae MB No. 2875; assay: Antibiotic spectrum profile, agar zone of inhibition; assay type: cell-based; conditions: MBNO.2875, 0.015 ml of 9.5 μg/ml aqueous solution, 25° C., read-out: Inhib. Zone Diam.
[2] = tested on: Streptococcus faecium MB No. 2820; assay: as above; assay type: cell-based; conditions: Enterococcus faecium, MBNO.2820, 0.015 ml of 9.5 μg/ml aqueous solution, 25° C., read-out: Inhib. Zone Diam.
[3] = tested on: Proteus mirabilis MB No. 3126; assay: as above; assay type: cell-based; conditions: MBNO.3126, 0.015 ml of 9.5 μg/ml aqueous solution, 25° C., read-out: Inhib. Zone Diam.
[4] = tested on: Staphylococcus aureus ATCC 6538 P; assay: as above; assay type: cell-based; conditions: ATCC6538, 0.015 ml of 9.5 μg/ml aqueous solution, 25° C., read-out: Inhib. Zone Diam.
[5] = tested on: Corynebacterium psedodiph. ATCC 9742; assay: as above; assay type: cell-based; conditions: ATCC9742, 0.015 ml of 9.5 μg/ml aqueous solution, 25° C., read-out: Inhib. Zone Diam.
[6] = tested on: Vibrio percolans ATCC 8461; assay: Antibiotic spectrum profile, agar zone of inhibition, with penicillinase; assay type: cell-based; conditions: Comamonas terrigena, ATCC8461; 0.015 ml of 9.5 μg/ml aqueous solution; 25° C.; Vibrio Percolans ATCC 8461 + 2×10^5 u/ml penicillinase; read-out: Inhib. Zone Diam.
[7] = tested on: Vibrio percolans ATCC 8461; assay: Antibiotic spectrum profile, agar zone of inhibition; assay type: cell-based; conditions: Comamonas terrigena, ATCC8461, 0.015 ml of 9.5 μg/ml aqueous solution, 25° C., read-out: Inhib. Zone Diam.
[8] = tested on: Protcus vulgaris MB No. 1012; assay: as above; assay type: cell-based; conditions: 0.015 ml of 9.5 μg/ml aqueous solution, 25° C., read-out: Inhib. Zone Diam.
Sarcina lutea ATCC 9341 = assay: as above; assay type: cell-based; conditions: Micrococcus luteus, ATCC9341, 0.015 ml of 9.5 μg/ml aqueous solution, 25° C., read-out: Inhib. Zone Diam.
[9] = Electrophoresis at neutral pH; assay type: physicochemical; conditions: 50 volts/cm, 0.03 M potassium phosphate buffer, pH 7.1, 30 minutes
Procedure: Antibiotic 890A10 is an acidic substance which migrates toward the positive pole on electrophoresis at neutral pH. At a gradient of 50 volts/cm. in 0.03 M potassium phosphate buffer, pH 7.1, the antibiotic moves 8.0 cm. in 30 minutes, compared with a movement of 4.0 cm. for 890A1. The disodium salt is a white or slightly yellow powder as lyophilized from aqueous solution. Under acidic conditions in aqueous solution, the antibiotic is unstable, and the free acid form has not been isolated.

[10] = tested on: Vibrio percolans ATCC 8461; assay: Bioassay, agar plate disc-diffusion, 890A1 standard; assay type: cell-based; conditions: measured against standard of antibiotic 890A1 (defined as 250 units per HAEA300 unit)
Procedure: An agar plate disc-diffusion method is employed using Vibrio percolans ATCC 8461 as tester organism. A purified sample of antibiotic 890A1 is used as standard. Antibiotic 890A1 is prepared according to the procedure set forth in Example 6.
Plates containing Vibrio percolans ATCC 8461 are prepared as follows:
A lyophilized culture of Vibrio percolans ATCC 8461 is suspended in 15 ml. of a sterilized medium containing 8 g./liter of Difco Nutrient Broth and 2 g./liter of yeast extract in distilled water "nutrient broth-yeast extract" (herein after designated NBYE). The culture is incubated overnight on a rotary shaker at 28° C. This culture is used to inoculate the surface of slants containing 1.5% agar in NBYE, and the inoculated slants are incubated overnight at 28° C., and then stored in a refrigerator. […]
Filter paper discs of one-half inch diameter are dipped into the solution to be assayed, and are placed on the agar. […] The diameter of the zone of inhibition is measured after appropriate incubation (12-14 hours at 25° C.). […]
Calculations of potencies proceed as follows: a slope is determined by measuring the zone diameters of a solution of antibiotic 890A10 and of a fourfold dilution (in KPB) of this solution. Two discs of each concentration are assayed on a single plate, and the average zone size at each concentration is determined. […] Potencies are then calculated by the formula: [formula] […]

[11] = tested on: Staphylococcus aureus MB No. 698; assay: Antibiotic spectrum profile, agar zone of inhibition; assay type: cell-based; conditions: MBNO.698, 0.015 ml of 9.5 μg/ml aqueous solution, 25° C., read-out: Inhib. Zone Diam.
[12] = tested on: Streptococcus faecalis MB No. 753; assay: as above; assay type: cell-based; conditions: Enterococcus faecalis, MBNO.753, 0.015 ml of 9.5 μg/ml aqueous solution, 25° C., read-out: Inhib. Zone Diam.
[13] = tested on: Xanthomonas vesicatoria MB No. 815; assay: as above; assay type: cell-based; conditions: MBNO.815, 0.015 ml of 9.5 μg/ml aqueous solution, 25° C., read-out: Inhib. Zone Diam.
[14] = tested on: Brucella bronchiseptica ATCC 4617; assay: microbe, parasite or virus in culture; assay type: cell-based; conditions: Bordetella bronchiseptica, ATCC4617, read-out: Inhib. Zone Diam.

CC(=O)NCCSC1=C(C(=O)O)N2C(=O)C(C(C)OS(=O)(=O)O)C2C1 (stereo not drawn) [Antibiotic 890A10]
zone of inhibition at 9.5 µg/mL [1]: 29 mm | zone of inhibition at 9.5 µg/mL [2]: 0 mm | zone of inhibition at 9.5 µg/mL [3]: 29 mm | zone of inhibition at 9.5 µg/mL [4]: 20 mm | zone of inhibition at 9.5 µg/mL [5]: 12 mm | zone of inhibition at 9.5 µg/mL [6]: 25 mm | zone of inhibition at 9.5 µg/mL [7]: 33 mm | zone of inhibition at 9.5 µg/mL [8]: 19 mm | zone of inhibition at 9.5 µg/mL (Sarcina lutea ATCC 9341): 33 mm | movement toward the positive pole on electrophoresis [9]: 8.0 cm | bioassay units per HAEA300 unit [10]: 174 bioassay units per HAEA300 unit | zone of inhibition at 9.5 µg/mL [11]: 23 mm | zone of inhibition at 9.5 µg/mL [12]: 0 mm | zone of inhibition at 9.5 µg/mL [13]: 20 mm | zone of inhibition at 9.5 µg/mL [14]: 0 mm
